Experimental data taken from patent US20130216498A1, “IMIDAZOPYRIDINE DERIVATIVES AS JAK INHIBITORS” (priority 2009, published 2013).

Key:
Type in all cases: biochemical
[1] = molecular target: T1, human JAK3 (aa 795-1124) catalytic domain (Homo sapiens, UniProt P52333); assay: In vitro JAK kinase assay (TR-FRET), JAK3; details: GST-fusion catalytic domain; ATP 0.6 μM; poly (GT)-Biotin 140 nM; 30 minutes at room temperature
T1 construct: JAK3 (aa 795-1124); GST (N); purchased Carna Biosciences; host or cells: baculovirus expression system
T1 sequence (P52333 795-1124): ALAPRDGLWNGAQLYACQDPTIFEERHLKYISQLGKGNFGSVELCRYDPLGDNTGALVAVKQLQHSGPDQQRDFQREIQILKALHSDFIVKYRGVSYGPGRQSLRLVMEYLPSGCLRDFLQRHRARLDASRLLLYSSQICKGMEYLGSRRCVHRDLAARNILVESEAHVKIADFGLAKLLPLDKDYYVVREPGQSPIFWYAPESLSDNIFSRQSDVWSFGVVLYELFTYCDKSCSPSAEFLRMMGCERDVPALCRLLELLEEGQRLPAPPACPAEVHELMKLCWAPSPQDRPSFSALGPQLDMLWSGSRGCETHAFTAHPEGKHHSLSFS
Method: (§1) Compounds were screened for their ability to inhibit JAK1, JAK2 and JAK3 using the assays as indicated below.
(§2) The catalytic domains of human JAK1 (aa 850-1154), JAK2 (aa 826-1132), JAK3 (aa 795-1124) and Tyk2 (aa 871-1187) were expressed as N-terminal GST-fusion proteins using a baculovirus expression system and were purchased from Carna Biosciences. The enzymatic activity was assayed using as substrate a biotinylated peptide, poly (GT)-Biotin (CisBio). The peptide concentration in the reactions was 60 nM for JAK1, 20 nM for JAK2, 140 nM for JAK3 and 50 nM for Tyk2. The degree of phosphorylation was detected by TR-FRET (time-resolved fluorescence energy transfer).
(§3) IC50s of compounds were measured for each kinase in a reaction mixture containing the enzyme, ATP and the peptide in 8 mM MOPS (pH 7.0), 10 mM MgCl2, 0.05% β-mercaptoethanol, 0.45 mg/mL BSA. The ATP concentration in the reactions was 3 μM for JAK1, 0.2 μM for JAK2, 0.6 μM for JAK3 and 1.8 μM for Tyk2. The enzymatic reactions took place for 30 minutes at room temperature. Then, the reactions were stopped with 20 μL of quench detection buffer (50 mM HEPES, 0.5 M KF, EDTA 0.25 M, 0.1% (w/v) BSA, pH 7.5) containing 0.115 μg/mL of anti-phosphoTyr (PT66)-Cryptate (CisBio) and a variable concentration of SA-XL665 (CisBio) to keep the SA-B ratio constant. Incubate for 3 h and read on Victor 2V spectrofluorometer (PerkinElmer) set to read fluorescence resonance energy transfer.

[2] = molecular target: T2, human JAK1 (aa 850-1154) catalytic domain (Homo sapiens, UniProt P23458); assay: In vitro JAK kinase assay (TR-FRET), JAK1; details: GST-fusion catalytic domain; ATP 3 μM; poly (GT)-Biotin 60 nM; 30 minutes at room temperature
T2 construct: human JAK1 (aa 850-1154); GST (N); purchased Carna Biosciences; host or cells: baculovirus expression system
T2 sequence (P23458 850-1154): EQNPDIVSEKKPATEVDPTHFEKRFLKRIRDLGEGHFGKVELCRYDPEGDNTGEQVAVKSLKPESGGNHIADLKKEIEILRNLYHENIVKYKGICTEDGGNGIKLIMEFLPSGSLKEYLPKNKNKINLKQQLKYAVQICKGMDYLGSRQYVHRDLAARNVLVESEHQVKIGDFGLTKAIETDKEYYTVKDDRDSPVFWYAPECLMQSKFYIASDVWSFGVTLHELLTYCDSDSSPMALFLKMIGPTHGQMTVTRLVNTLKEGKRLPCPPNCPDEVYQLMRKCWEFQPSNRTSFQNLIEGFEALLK
Method: as §1, §2, §3

[3] = molecular target: T3, human JAK2 (aa 826-1132) catalytic domain (Homo sapiens, UniProt O60674); assay: In vitro JAK kinase assay (TR-FRET), JAK2; details: GST-fusion catalytic domain; ATP 0.2 μM; poly (GT)-Biotin 20 nM; 30 minutes at room temperature
T3 construct: JAK2 (aa 826-1132); GST (N); purchased Carna Biosciences; host or cells: baculovirus expression system
T3 sequence (O60674 826-1132): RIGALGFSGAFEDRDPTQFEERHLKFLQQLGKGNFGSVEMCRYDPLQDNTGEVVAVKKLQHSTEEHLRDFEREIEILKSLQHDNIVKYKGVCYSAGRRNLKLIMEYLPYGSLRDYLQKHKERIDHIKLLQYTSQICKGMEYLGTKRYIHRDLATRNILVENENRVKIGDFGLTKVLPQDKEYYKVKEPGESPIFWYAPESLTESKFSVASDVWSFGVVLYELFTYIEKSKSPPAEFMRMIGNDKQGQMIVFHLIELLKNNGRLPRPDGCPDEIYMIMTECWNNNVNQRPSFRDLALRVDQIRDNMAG
Method: as §1, §2, §3

IC50 [1] | IC50 [2] | IC50 [3] | SMILES
0.1 to 1 µM | 0.1 to 1 µM | < 0.1 µM | C[C@@H](c1ccc(F)cn1)N(C)c1nc(-c2cnc3ccc(F)cn23)ncc1C(=O)O [Example 145, (S)-2-(6-Fluoroimidazo[1,2-a]pyridin-3-yl)-4-((1-(5-fluoropyridin-2-yl)ethyl)(methyl)amino)pyrimidine-5-carboxylic acid]
< 0.1 µM | 0.1 to 1 µM | < 0.1 µM | CCC[C@H](Nc1nc(-c2cnc3ccc(F)cn23)ncc1C(N)=O)c1ccc(F)cc1 [Example 151, (S)-2-(6-Fluoroimidazo[1,2-a]pyridin-3-yl)-4-(1-(4-fluorophenyl)butylamino) pyrimidine-5-carboxamide]
0.1 to 1 µM | 0.1 to 1 µM | < 0.1 µM | N#CCC(=O)N1CCC[C@@H](Nc2cc(N3CCC[C@H]3C(=O)O)nc(-c3cnc4ccc(F)cn34)n2)C1 [Example 172]
0.1 to 1 µM | 0.1 to 1 µM | < 0.1 µM | N#CCC(=O)N1CCC[C@@H](Nc2cc(C(=O)O)nc(-c3cnc4ccc(F)cn34)n2)C1 [Example 181, (R)-6-(1-(2-Cyanoacetyl)piperidin-3-ylamino)-2-(6-fluoroimidazo[1,2-a]pyridin-3-yl)pyrimidine-4-carboxylic acid]
< 0.1 µM | < 0.1 µM | < 0.1 µM | N#CCC(=O)N1CCC[C@@H](Nc2cc(N)nc(-c3cnc4ccc(F)cn34)n2)C1 [Example 183, (R)-3-(3-(6-Amino-2-(6-fluoroimidazo[1,2-a]pyridin-3-yl)pyrimidin-4-ylamino)piperidin-1-yl)-3-oxopropanenitrile]

Further lines, the compound ahead of its results:

SMILES | IC50 [1] | IC50 [2] | IC50 [3]
N#CC[C@H]1CC[C@H](Nc2nc(-c3cnc4ccc(F)cn34)ncc2C(N)=O)CC1 [Example 153, 4-((1r,4r)-4-(Cyanomethyl)cyclohexylamino)-2-(6-fluoroimidazo[1,2-a]pyridin-3-yl)pyrimidine-5-carboxamide] | < 0.1 µM | > 1 µM | < 0.1 µM
CS(=O)(=O)c1cnc(-c2cnc3ccc(F)cn23)nc1N[C@@H]1CCCN(C(=O)CC#N)C1 [Example 159, (R)-3-(3-(2-(6-Fluoroimidazo[1,2-a]pyridin-3-yl)-5-(methylsulfonyl)pyrimidin-4-ylamino)piperidin-1-yl)-3-oxopropanenitrile] | 0.1 to 1 µM | > 1 µM | < 0.1 µM
COc1cnc(-c2cnc3ccc(F)cn23)nc1N[C@@H]1CCCN(C(=O)CC#N)C1 [Example 163, (R)-3-(3-(2-(6-Fluoroimidazo[1,2-a]pyridin-3-yl)-5-methoxypyrimidin-4-ylamino)piperidin-1-yl)-3-oxopropanenitrile] | < 0.1 µM | 0.1 to 1 µM | < 0.1 µM
N#CCC(=O)N1CCC[C@@H](Nc2cc(-n3cncn3)nc(-c3cnc4ccc(F)cn34)n2)C1 [Example 164, (R)-3-(3-(2-(6-Fluoroimidazo[1,2-a]pyridin-3-yl)-6-(M−1,2,4-triazol-1-yl)pyrimidin-4-ylamino)piperidin-1-yl)-3-oxopropanenitrile] | < 0.1 µM | 0.1 to 1 µM | < 0.1 µM
N#CCC(=O)N1CCC[C@@H](Nc2cc(N3CCNCC3)nc(-c3cnc4ccc(F)cn34)n2)C1 [Example 166, (R)-3-(3-(2-(6-Fluoroimidazo[1,2-a]pyridin-3-yl)-6-(piperazin-1-yl)pyrimidin-4-ylamino)piperidin-1-yl)-3-oxopropanenitrile] | < 0.1 µM | 0.1 to 1 µM | < 0.1 µM
N#CCC(=O)N1CCC[C@@H](Nc2cc(OCCN3CCOCC3)nc(-c3cnc4ccc(F)cn34)n2)C1 [Example 175, (R)-3-(3-(2-(6-Fluoroimidazo[1,2-a]pyridin-3-yl)-6-(2-morpholinoethoxy)pyrimidin-4-ylamino)piperidin-1-yl)-3-oxopropanenitrile] | < 0.1 µM | < 0.1 µM | < 0.1 µM
O=C([C@H](O)CO)N1CCC[C@@H](Nc2nc(-c3cnc4ccc(F)cn34)nc(N3CCOCC3)c2F)C1 [Example 185, (R)-1-((R)-3-(5-Fluoro-2-(6-fluoroimidazo[1,2-a]pyridin-3-yl)-6-morpholinopyrimidin-4-ylamino)piperidin-1-yl)-2,3-dihydroxypropan-1-one] | 0.1 to 1 µM | 0.1 to 1 µM | < 0.1 µM
